Legend:
[1] = test system: Benzodiazepine receptor (gamma-aminobutyric acid receptor subunit); settings: rat cortical membranes; cited from earlier work
TAS2R1 = target: T1, TAS2R1 (Homo sapiens, UniProt Q9NYW7); assay: Blocking of TAS2R1 response to the APIs; format: cell-based; settings: data not shown
T1 sequence (Q9NYW7 1-299): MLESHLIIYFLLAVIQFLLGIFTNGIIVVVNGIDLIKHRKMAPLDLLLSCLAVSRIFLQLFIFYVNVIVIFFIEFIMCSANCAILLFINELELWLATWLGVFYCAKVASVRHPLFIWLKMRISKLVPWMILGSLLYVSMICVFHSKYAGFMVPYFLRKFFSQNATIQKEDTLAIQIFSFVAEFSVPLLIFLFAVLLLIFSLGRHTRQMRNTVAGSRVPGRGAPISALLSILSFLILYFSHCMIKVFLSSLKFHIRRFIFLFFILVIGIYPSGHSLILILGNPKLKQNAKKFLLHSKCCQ

glucocorticoid receptor = target: T2, glucocorticoid receptor (Homo sapiens, UniProt P04150); settings: human MDA-kb2 cells; cited from earlier work
T2 construct: glucocorticoid receptor in human MDA-kb2 cells; endogenous in cells; host or cells: MDA-kb2
T2 sequence (P04150 1-777): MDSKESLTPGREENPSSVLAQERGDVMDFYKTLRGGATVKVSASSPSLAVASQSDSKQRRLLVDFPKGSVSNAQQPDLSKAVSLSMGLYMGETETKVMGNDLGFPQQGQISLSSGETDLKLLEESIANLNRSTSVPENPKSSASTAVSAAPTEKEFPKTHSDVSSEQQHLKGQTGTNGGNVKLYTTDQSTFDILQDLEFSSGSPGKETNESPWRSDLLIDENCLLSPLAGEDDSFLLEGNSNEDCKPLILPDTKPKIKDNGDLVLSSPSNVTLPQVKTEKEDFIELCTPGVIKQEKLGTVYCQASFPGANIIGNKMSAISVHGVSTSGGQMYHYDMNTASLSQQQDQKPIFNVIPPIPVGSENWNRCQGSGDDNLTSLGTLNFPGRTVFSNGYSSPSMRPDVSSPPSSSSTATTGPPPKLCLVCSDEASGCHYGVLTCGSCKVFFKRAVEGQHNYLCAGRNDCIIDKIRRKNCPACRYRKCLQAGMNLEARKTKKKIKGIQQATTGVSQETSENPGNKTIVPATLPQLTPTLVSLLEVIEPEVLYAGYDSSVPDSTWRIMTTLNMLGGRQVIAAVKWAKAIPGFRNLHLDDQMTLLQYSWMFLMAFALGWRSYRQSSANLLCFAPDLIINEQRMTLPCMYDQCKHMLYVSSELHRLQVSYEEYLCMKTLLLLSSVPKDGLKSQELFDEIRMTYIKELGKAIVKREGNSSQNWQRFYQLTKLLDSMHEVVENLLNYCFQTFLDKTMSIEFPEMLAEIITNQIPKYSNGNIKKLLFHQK

- Inhibition of TAS2R1 (TAS2R1; FIG. 5A legend (Piperaquine)): did not inhibit
- Inhibition of the response of TAS2R1 to TAF (TAS2R1; FIG. 7B legend): did not inhibit
SMILES: Cc1ccc2oc(-c3ccccc3)cc(=O)c2c1 [6-methylflavone]
- In vitro affinity against Benzodiazepine receptor binding [1]: active
- Antagonist activity at glucocorticoid receptor (glucocorticoid receptor): antagonist activity
